Converted amounts (≈) assume the structure as drawn. Numbered stars: 1 amine (or outer) side, 2 acyl side, 3 side chain; on linkers, the order of the positions; unused ones are H or OH. Peptide text beside a SMILES is read from it. * marks the point of attachment. C20 diacid = O=C(O)CCCCCCCCCCCCCCCCCCC(=O)*; C18 diacid = O=C(O)CCCCCCCCCCCCCCCCC(=O)*; γGlu = O=C(O)[C@H](CCC(=O)[*:2])N[*:1]
Experiments:
[1] = Assay (IX) pK, T½ in mini-pig; assay type: in vivo, Göttingen mini-pigs; details: i.v.
Description: Assay (IX)—pK—Determination of T½ in Mini-Pig
Pharmacokinetic (PK) studies in Göttingen mini-pigs were conducted in order to determine the T½ of the mimylin compound according to the Examples as indicated after i.v. administration.
T½ values of the amylin analogues of the invention is determined by pharmacokinetic studies in female Göttingen mini-pigs from Ellegaard Göttingen Minipigs ApS and the principles of laboratory animal care are followed.
An acclimatisation period of approximately 6-10 days was allowed before the animals entered the study. At start of the acclimatisation period the mini-pigs were about 5 to 12 months old and in the weight range of 15-35 kg. The mini-pigs had two central venous catheters inserted which were used for blood sampling.
The studies were conducted in an animal room which was illuminated to give a cycle of approximately 12 hours light and 12 hours darkness. The animals were housed individually. The animals had free access to domestic quality drinking water during the study, and no food restrictions applied for PK studies. The animals were weighed on arrival and on the days of dosing.
In the present studies the test substances were administered intravenously in approximately 5 nmol/kg dose. The animals received a single intravenous injection in one central venous catheter and blood sampling was performed from the other catheter, where possible. Each test substance was given to typically three but in some cases two or four animals.
A full plasma concentration-time profile, employing 12-16 sampling points, was obtained from each animal. In example blood samples were collected according to the following schedule:
After Intravenous Administration:
Pre-dose (0), 0.5, 1, 2, 4, 6, 8, 12, 24, 48, 72, 96, 120, 168 and 240 hours after injection. In some cases also additional blood samples up to 288 hours post injection were taken.
At each sampling time, 0.5 to 2 ml of blood was drawn from each animal. The blood samples were taken via the central venous catheter.
The 0.8 mL blood samples were collected into EDTA test tubes (8 mM EDTA). Blood samples were kept on ice for max 20 min. before centrifugation. Plasma was separated using centrifugation (i.e. at 4° C., 10 min., 2000G) and was immediately transferred to Micronic tubes on dry ice. Approximately 200 μl plasma was transferred to each Micronic tube. The plasma was stored at −20° C. until assayed. The plasma samples were assayed for the content of compound using LCMS.
The plasma concentration-time profiles were analysed by a non-compartmental pharmacokinetic analysis (NCA) using Phoenix WinNonlin 6.3 (Pharsight Inc., Mountain View, Calif., USA). NCA was performed using the individual plasma concentration-time profiles from each animal. T½ is the terminal half-life=In2/λz and was determined from λz, the first order rate constant associated with the terminal (log-linear) portion of the curve, estimated by linear regression of time vs. log concentration.
MS-Method for Amylin and Mimylin Quantification
40 μl plasma is diluted with 120 μl 66.67% EtOH+1% HCOOH and mixed. Centrifuged for 20 min. at 13000 rpm, 4° C. The supernatant is analyzed by an LC-MS method on a Sciex API 3000 and quantitated with a standard made up in plasma

rat calcitonin receptor = biological target: T1, rat calcitonin receptor (Rattus norvegicus, UniProt P32214); experiment: Assay (VIII) binding to the rat calcitonin receptor; details: membranes; read-out: rCT-R binding IC50
T1 construct: expressed in transfected cells; host or cells: BHK tk'ts 13 (transient, FuGENE 6)
T1 sequence (P32214 25-479 isoform P32214-2 limits assumed): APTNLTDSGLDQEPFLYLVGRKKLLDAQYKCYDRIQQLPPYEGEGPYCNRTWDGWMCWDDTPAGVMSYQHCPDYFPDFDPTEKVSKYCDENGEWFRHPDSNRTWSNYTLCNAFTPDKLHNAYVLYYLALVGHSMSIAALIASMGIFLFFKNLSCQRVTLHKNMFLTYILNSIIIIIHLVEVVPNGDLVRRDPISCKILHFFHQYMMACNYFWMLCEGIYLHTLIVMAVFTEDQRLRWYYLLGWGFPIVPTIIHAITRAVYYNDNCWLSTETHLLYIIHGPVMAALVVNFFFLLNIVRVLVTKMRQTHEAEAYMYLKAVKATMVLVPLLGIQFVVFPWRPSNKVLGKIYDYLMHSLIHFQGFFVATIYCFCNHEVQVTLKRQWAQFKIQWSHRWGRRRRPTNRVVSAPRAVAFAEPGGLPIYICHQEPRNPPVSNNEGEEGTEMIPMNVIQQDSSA
Outline: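 Affinity given as IC50 from a one-site competition fit of bound radioactivity, counted by scintillation after cold HBSS washes and NaOH/SDS lysis. Membranes came from BHK tk'ts 13 cells transiently expressing the rat receptor; other conditions followed the human calcitonin receptor protocol.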

[2] = Assay (IV) determination of solubility; assay type: physicochemical
Description: Assay (IV)—Determination of Solubility
The mimylin peptide was dissolved in water at ˜500 nmol/ml and mixed 1:1 with a series of buffers (100 mM glycylglycine pH 3.0, 100 mM glycylglycine pH 4.0, 100 mM glycylglycine pH 5.0, 100 mM bistrispropane pH 6.0, 100 mM bistrispropane pH 6.5, 100 mM bistrispropane pH 7.0, 100 mM bistrispropane pH 7.5, 100 mM bistrispropane pH 8.0).

Structure (SMILES): CC(C)C[C@H](NC(=O)CNC(=O)[C@H](CO)NC(=O)[C@H](C)NC(=O)CC[C@H](NC(=O)CCCCCCCCCCCCCCCCC(=O)O)C(=O)O)C(=O)N[C@@H](CO)C(=O)N[C@H](C(=O)N[C@@H](C)C(=O)N[C@@H](C)C(=O)N[C@@H](CC(C)C)C(=O)NCC(=O)N[C@@H](CCCNC(=N)N)C(=O)N[C@@H](CC(C)C)C(=O)N[C@@H](CO)C(=O)N[C@@H](CCC(N)=O)C(=O)N[C@@H](CCC(=O)O)C(=O)N[C@@H](CC(C)C)C(=O)N[C@@H](Cc1cnc[nH]1)C(=O)N[C@@H](CCC(=O)O)C(=O)N[C@@H](CC(C)C)C(=O)N[C@@H](CCC(N)=O)C(=O)N[C@H](C(=O)N[C@@H](Cc1ccc(O)cc1)C(=O)N1CCC[C@H]1C(=O)N[C@@H](CCCNC(=N)N)C(=O)N[C@H](C(=O)N[C@@H](CCC(=O)O)C(=O)N[C@H](C(=O)NCC(=O)N[C@@H](CO)C(=O)NCC(=O)N[C@H](C(=O)N[C@@H](Cc1ccc(O)cc1)C(N)=O)[C@@H](C)O)[C@@H](C)O)[C@@H](C)O)[C@@H](C)O)[C@@H](C)O [compound 110, [N-terminal(C18 diacid-gGlu), des1, 4G, 15Q, 21Q, 23Y, 30S, 31G, 32T, 33Y]mimylin] ({C18 diacid-γGlu}-ASGLSTAALGRLSQELHELQTYPRTETGSGTY-NH2)
- PK mini pig iv T½ [1]: 32 h
- IC50 (rat calcitonin receptor): 0.013 nM
- Solubility ([2]; pH 3.0): ≧200 μM
- Solubility ([2]; pH 4.0): ≧200 μM
- solubility at 18 h ([2]; pH 5.0): 149 µM (≈ 569 µg/mL)
- Solubility ([2]; pH 6.0): ≧200 μM
- Solubility ([2]; pH 6.5): ≧200 μM
- Solubility ([2]; pH 7.0): ≧200 μM
- Solubility ([2]; pH 7.5): ≧200 μM
- Solubility ([2]; pH 8.0): ≧200 μM

Structure (SMILES): CC(C)C[C@H](NC(=O)[C@H](C)NC(=O)[C@H](C)NC(=O)[C@@H](NC(=O)[C@H](CO)NC(=O)[C@H](CC(C)C)NC(=O)[C@H](CCC(=O)O)NC(=O)[C@H](CO)NC(=O)[C@H](C)NC(=O)CC[C@H](NC(=O)CCCCCCCCCCCCCCCCCCC(=O)O)C(=O)O)[C@@H](C)O)C(=O)NCC(=O)N[C@@H](CCCNC(=N)N)C(=O)N[C@@H](CC(C)C)C(=O)N[C@@H](CO)C(=O)N[C@@H](C)C(=O)N[C@@H](CCC(=O)O)C(=O)N[C@@H](CC(C)C)C(=O)N[C@@H](Cc1cnc[nH]1)C(=O)N[C@@H](CCC(=O)O)C(=O)N[C@@H](CC(C)C)C(=O)N[C@@H](C)C(=O)N[C@H](C(=O)N[C@@H](Cc1ccc(O)cc1)C(=O)N1CCC[C@H]1C(=O)N[C@@H](CCCNC(=N)N)C(=O)N[C@H](C(=O)N[C@@H](CCC(=O)O)C(=O)N[C@H](C(=O)NCC(=O)N[C@@H](CO)C(=O)NCC(=O)N[C@@H](CO)C(=O)N1CCC[C@H]1C(N)=O)[C@@H](C)O)[C@@H](C)O)[C@@H](C)O [compound 56, [N-terminal(C20 diacid-gGlu), des1, 23Y, 30S, 31G]mimylin] ({C20 diacid-γGlu}-ASELSTAALGRLSAELHELATYPRTETGSGSP-NH2)
- PK mini pig iv T½ [1]: 88 h
- IC50 (rat calcitonin receptor): 0.202 nM
- Solubility ([2]; pH 3.0): ≧200 μM
- Solubility ([2]; pH 4.0): ≧200 μM
- Solubility ([2]; pH 5.0): ≧200 μM
- Solubility ([2]; pH 6.0): ≧200 μM
- Solubility ([2]; pH 6.5): ≧200 μM
- Solubility ([2]; pH 7.0): ≧200 μM
- Solubility ([2]; pH 7.5): ≧200 μM
- Solubility ([2]; pH 8.0): ≧200 μM

Structure (SMILES): CC(C)C[C@H](NC(=O)[C@H](C)NC(=O)[C@H](C)NC(=O)[C@@H](NC(=O)[C@H](CO)NC(=O)[C@H](CC(C)C)NC(=O)[C@H](CCC(=O)O)NC(=O)[C@H](CO)NC(=O)[C@H](C)NC(=O)[C@H](CCC(=O)O)NC(=O)CCCCCCCCCCCCCCCCCCC(=O)O)[C@@H](C)O)C(=O)NCC(=O)N[C@@H](CCCNC(=N)N)C(=O)N[C@@H](CC(C)C)C(=O)N[C@@H](CO)C(=O)N[C@@H](C)C(=O)N[C@@H](CCC(=O)O)C(=O)N[C@@H](CC(C)C)C(=O)N[C@@H](Cc1cnc[nH]1)C(=O)N[C@@H](CCC(=O)O)C(=O)N[C@@H](CC(C)C)C(=O)N[C@@H](C)C(=O)N[C@H](C(=O)N[C@@H](CC(C)C)C(=O)N1CCC[C@H]1C(=O)N[C@@H](CCCNC(=N)N)C(=O)N[C@H](C(=O)N[C@@H](CCC(=O)O)C(=O)N[C@H](C(=O)NCC(=O)N[C@@H](CO)C(=O)NCC(=O)N[C@@H](CO)C(=O)N1CCC[C@H]1C(N)=O)[C@@H](C)O)[C@@H](C)O)[C@@H](C)O [compound 22, [N-terminal(C20 diacid), 30S, 31G]mimylin] ({C20 diacid}-EASELSTAALGRLSAELHELATLPRTETGSGSP-NH2)
- PK mini pig iv T½ [1]: 108 h
- Solubility ([2]; pH 3.0): ≧200 μM
- Solubility ([2]; pH 4.0): ≧200 μM
- Solubility ([2]; pH 5.0): ≧200 μM
- Solubility ([2]; pH 6.0): ≧200 μM
- Solubility ([2]; pH 6.5): ≧200 μM
- Solubility ([2]; pH 7.0): ≧200 μM
- Solubility ([2]; pH 7.5): ≧200 μM
- Solubility ([2]; pH 8.0): ≧200 μM

Structure (SMILES): CC(C)C[C@H](NC(=O)[C@H](C)NC(=O)[C@H](C)NC(=O)[C@@H](NC(=O)[C@H](CO)NC(=O)[C@H](CC(C)C)NC(=O)[C@H](CCC(=O)O)NC(=O)[C@H](CO)NC(=O)[C@H](C)NC(=O)[C@H](CCC(=O)O)NC(=O)CCCCCCCCCCCCCCCCC(=O)O)[C@@H](C)O)C(=O)NCC(=O)N[C@@H](CCCNC(=N)N)C(=O)N[C@@H](CC(C)C)C(=O)N[C@@H](CO)C(=O)N[C@@H](C)C(=O)N[C@@H](CCC(=O)O)C(=O)N[C@@H](CC(C)C)C(=O)N[C@@H](C)C(=O)N[C@@H](CCC(=O)O)C(=O)N[C@@H](CC(C)C)C(=O)N[C@@H](C)C(=O)N[C@H](C(=O)N[C@@H](CC(C)C)C(=O)N1CCC[C@H]1C(=O)N[C@@H](CCCNC(=N)N)C(=O)N[C@H](C(=O)N[C@@H](CCC(=O)O)C(=O)N[C@H](C(=O)NCC(=O)N1CCC[C@H]1C(=O)N[C@@H](CCC(=O)O)C(=O)N[C@@H](CO)C(=O)N1CCC[C@H]1C(N)=O)[C@@H](C)O)[C@@H](C)O)[C@@H](C)O [compound 13, [N-terminal(C18 diacid), 18A]mimylin] ({C18 diacid}-EASELSTAALGRLSAELAELATLPRTETGPESP-NH2)
- PK mini pig iv T½ [1]: 86 h
- Solubility ([2]; pH 3.0): ≧200 μM
- Solubility ([2]; pH 4.0): ≧200 μM
- Solubility ([2]; pH 5.0): ≧200 μM
- Solubility ([2]; pH 6.0): ≧200 μM
- Solubility ([2]; pH 6.5): ≧200 μM
- Solubility ([2]; pH 7.0): ≧200 μM
- Solubility ([2]; pH 7.5): ≧200 μM
- Solubility ([2]; pH 8.0): ≧200 μM

From patent US9593149B2, “Amylin and calcitonin receptor agonist” (Novo Nordisk A/S, priority 2014, dated 2017)
